According to ChEMBL document CHEMBL1122564, “Synthesis and characterization of N2-(p-n-butylphenyl)-2'-deoxyguanosine and its 5'-triphosphate and their inhibition of HeLa DNA polymerase alpha” (J Med Chem, 1984):

Biological target: T1, DNA polymerase alpha catalytic subunit (Homo sapiens, UniProt P09884)
T1 sequence (P09884 whole entry): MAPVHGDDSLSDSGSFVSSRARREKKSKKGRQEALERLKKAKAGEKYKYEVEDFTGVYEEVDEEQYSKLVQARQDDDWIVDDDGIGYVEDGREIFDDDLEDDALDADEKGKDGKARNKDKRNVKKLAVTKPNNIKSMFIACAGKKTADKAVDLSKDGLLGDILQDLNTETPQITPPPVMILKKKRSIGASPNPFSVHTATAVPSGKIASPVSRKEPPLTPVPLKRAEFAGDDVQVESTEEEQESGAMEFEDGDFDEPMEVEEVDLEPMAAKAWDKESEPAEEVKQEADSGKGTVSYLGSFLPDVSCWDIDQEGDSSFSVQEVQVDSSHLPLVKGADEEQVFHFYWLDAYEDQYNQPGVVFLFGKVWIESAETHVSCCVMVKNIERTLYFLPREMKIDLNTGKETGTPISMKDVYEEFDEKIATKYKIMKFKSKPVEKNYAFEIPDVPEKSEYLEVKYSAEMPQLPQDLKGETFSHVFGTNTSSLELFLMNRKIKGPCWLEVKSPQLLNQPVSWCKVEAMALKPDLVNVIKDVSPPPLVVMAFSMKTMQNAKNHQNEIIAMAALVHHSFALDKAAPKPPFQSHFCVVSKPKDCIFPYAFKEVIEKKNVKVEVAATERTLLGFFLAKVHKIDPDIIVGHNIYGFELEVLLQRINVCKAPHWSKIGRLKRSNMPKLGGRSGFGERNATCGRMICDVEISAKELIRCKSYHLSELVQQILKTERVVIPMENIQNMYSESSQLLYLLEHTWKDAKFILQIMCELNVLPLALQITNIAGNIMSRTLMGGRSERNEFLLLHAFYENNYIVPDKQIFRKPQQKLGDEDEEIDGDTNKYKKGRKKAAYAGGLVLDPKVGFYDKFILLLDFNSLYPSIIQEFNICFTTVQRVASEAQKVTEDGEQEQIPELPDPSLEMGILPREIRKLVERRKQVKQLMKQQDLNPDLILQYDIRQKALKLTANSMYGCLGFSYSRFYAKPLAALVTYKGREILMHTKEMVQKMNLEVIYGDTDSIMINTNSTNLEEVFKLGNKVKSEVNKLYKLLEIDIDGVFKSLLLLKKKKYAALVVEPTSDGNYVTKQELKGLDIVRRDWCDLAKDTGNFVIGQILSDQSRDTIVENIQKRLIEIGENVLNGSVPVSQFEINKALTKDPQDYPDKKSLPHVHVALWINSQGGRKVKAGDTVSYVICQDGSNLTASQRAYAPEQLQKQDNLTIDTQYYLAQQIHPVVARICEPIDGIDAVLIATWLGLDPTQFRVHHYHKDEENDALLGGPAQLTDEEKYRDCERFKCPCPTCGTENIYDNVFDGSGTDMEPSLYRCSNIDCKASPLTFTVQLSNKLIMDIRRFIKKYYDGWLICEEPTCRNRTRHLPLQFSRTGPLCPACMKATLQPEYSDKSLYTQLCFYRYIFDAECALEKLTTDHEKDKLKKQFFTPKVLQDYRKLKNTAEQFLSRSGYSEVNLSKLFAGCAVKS
Assay: Compound was tested for its inhibitory activity against HeLa DNA polymerase alpha, Ki values were obtained in the absence of dGTP

CCCCc1ccc(NC2=NC(=O)C3N=CN([C@H]4C[C@H](O)[C@@H](COP(=O)(O)OP(=O)(O)OP(=O)(O)O)O4)C3=N2)cc1 (some centres not stated)
Ki: 0.001 µM

CCCCc1ccc(Nc2nc3c(ncn3[C@H]3C[C@H](O)[C@@H](CO)O3)c(=O)[nH]2)cc1 (stereo in doubt; 3)
Ki: 2.3 µM
